The test system of this assay is HUVEC cells. Nature of the assay: Human Umbilical Vein Endothelial Cell (HUVEC) proliferation assay (BrdU incorporation). The class given is cell-based. The settings on record: growth stimulated with VEGF, 72 hrs, read-out: Inhibition of HUVEC proliferation IC50. Here is the method: Human Umbilical Vein Endothelial Cell (HUVEC) Proliferation Assay (BrdU Incorporation) Materials
HUVEC cells and EGM-MV (Endothelial cell growth medium—microvascular) were purchased from Clonetics (San Diego, Calif.). VEGF and bFGF were purchased from R&D Systems (Minneapolis, Minn.). Anti-BrdU antibody was obtained from Chemicon International (Temecula, Calif.).
HUVECs were routinely maintained in EGM-MV medium and were used within passage 7. HUVECs were plated at a density of 2500 cells/well in M199 medium containing 5% FBS (Hyclone) in type I collagen coated plate (Becton Dickinson). The plate was incubated at 37° C. overnight. The medium was removed by aspiration, and test compounds were added to each well in a volume of 0.1 ml/well in serum-free M199 medium. Compound concentrations ranged from 1.5 nM to 30 micromolar. The plate was incubated for 30 min at 37° C. Another 0.1 ml of serum-free M199 medium containing BSA and VEGF (or bFGF) was added to give a final concentration of 0.1% BSA and 10 ng/ml VEGF (0.3 ng/ml bFGF). The plate was incubated at 37° C. for 72 hrs. BrdU was added to each well after the first 48 hrs to give a concentration of 10 micromolar. The colorimetric ELISA assay was performed according to manufacturer's (Roche Molecular Sciences) instructions, with detection by absorbance reading at 450 nm. Results were plotted as concentration of test compound vs. absorbance to give an IC50 value for inhibition of BrdU incorporation.
For orientation: Uptake of a labelled nucleoside into DNA is a usual measure of proliferation.

For `CNS(=O)(=O)Cc1ccc(Nc2ncc(-c3ccccc3)o2)cc1` [Example 51, N-methyl-1-{4-[(5-phenyl-1,3-oxazol-2-yl)amino]phenyl}methanesulfonamide], the IC50 was less than 1 µM.

In the case of `CCS(=O)(=O)c1ccc(OC)c(Nc2ncc(-c3ccccc3)o2)c1` [Example 56, N-[5-(ethylsulfonyl)-2-methoxyphenyl]-5-phenyl-1,3-oxazol-2-amine], the IC50 is less than 0.5 µM. With `COc1ccc(S(=O)(=O)N(C)C)cc1Nc1ncc(-c2ccc(F)cc2)o1` [Example 70, 3-{[5-(4-fluorophenyl)-1,3-oxazol-2-yl]amino}-4-methoxy-N,N-dimethylbenzenesulfonamide], the IC50 is less than 0.5 µM.

For `COc1cc(Nc2ncc(-c3ccccc3)o2)cc(OC)c1OC` [Example 74, 5-phenyl-N-(3,4,5-trimethoxyphenyl)-1,3-oxazol-2-amine], the IC50 was less than 0.5 µM. As to `COc1ccc(CS(C)(=O)=O)cc1Nc1ncc(-c2ccc(F)cc2)o1` [Example 82, 5-(4-fluorophenyl)-N-{2-methoxy-5-[(methylsulfonyl)methyl]phenyl}-1,3-oxazol-2-amine], the IC50 was less than 1 µM. To `COc1ccc(S(=O)(=O)NCc2ccccn2)cc1Nc1ncc(-c2ccc(F)cc2)o1` [Example 86, 3-{[5-(4-fluorophenyl)-1,3-oxazol-2-yl]amino}-4-methoxy-N-(pyridin-2-ylmethyl)benzenesulfonamide] belongs less than 0.5 µM; to `COc1ccc(S(N)(=O)=O)cc1Nc1ncc(-c2ccc(F)cc2)o1` [Example 89, 3-{[5-(4-fluorophenyl)-1,3-oxazol-2-yl]amino}-4-methoxybenzenesulfonamide], less than 1 µM. For the molecule `CCC(CC)S(=O)(=O)c1ccc(OC)c(Nc2ncc(-c3ccc(F)cc3)o2)c1` [Example 90, N-{5-[(1-ethylpropyl)sulfonyl]-2-methoxyphenyl}-5-(4-fluorophenyl)-1,3-oxazol-2-amine], the IC50 was less than 1 µM. On to `COc1ccc(S(=O)(=O)CC(C)C)cc1Nc1ncc(-c2ccc(F)cc2)o1` [Example 93, 5-(4-fluorophenyl)-N-[5-(isobutylsulfonyl)-2-methoxyphenyl]-1,3-oxazol-2-amine], for which the IC50 is less than 1 µM. To `COc1ccc(S(=O)(=O)CC2CCCO2)cc1Nc1ncc(-c2ccc(F)cc2)o1` (stereo not drawn) [Example 94, 5-(4-fluorophenyl)-N-{2-methoxy-5-[(tetrahydrofuran-2-ylmethyl)sulfonyl]phenyl}-1,3-oxazol-2-amine] belongs less than 1 µM.

With `COc1ccc(S(=O)(=O)C2CCOC2)cc1Nc1ncc(-c2ccc(F)cc2)o1` (stereo not drawn) [Example 95, 5-(4-fluorophenyl)-N-[2-methoxy-5-(tetrahydrofuran-3-ylsulfonyl)phenyl]-1,3-oxazol-2-amine], the IC50 is less than 1 µM.

As to `COc1ccc(S(=O)(=O)C(C)C)cc1Nc1ncc(-c2ccc(F)cc2)o1` [Example 97, 5-(4-fluorophenyl)-N-[5-(isopropylsulfonyl)-2-methoxyphenyl]-1,3-oxazol-2-amine], the IC50 was less than 0.5 µM. Then `CCS(=O)(=O)c1ccc(OC)c(Nc2ncc(-c3cccc(Br)c3)o2)c1` [Example 100, 5-(3-bromophenyl)-N-[5-(ethylsulfonyl)-2-methoxyphenyl]-1,3-oxazol-2-amine], with less than 1 µM; and `CCS(=O)(=O)c1ccc(OC)c(Nc2ncc(-c3ccc(F)cc3)o2)c1` [Example 109, N-[5-(ethylsulfonyl)-2-methoxyphenyl]-5-(4-fluorophenyl)-1,3-oxazol-2-amine], with less than 0.5 µM; and `CCS(=O)(=O)c1ccc(OC)c(Nc2ncc(-c3ccc(F)c(F)c3)o2)c1` [Example 110, 5-(3,4-difluorophenyl)-N-[5-(ethylsulfonyl)-2-methoxyphenyl]-1,3-oxazol-2-amine], with less than 1 µM.

With `COc1cc(Nc2ncc(-c3ccc(F)cc3)o2)cc(OC)c1OC` [Example 116, 5-(4-fluorophenyl)-N-(3,4,5-trimethoxyphenyl)-1,3-oxazol-2-amine], the IC50 was less than 1 µM. To `COc1ccc(S(=O)(=O)NCc2ccncc2)cc1Nc1ncc(-c2ccc(F)cc2)o1` [Example 122, 3-{[5-(4-fluorophenyl)-1,3-oxazol-2-yl]amino}-4-methoxy-N-(pyridin-4-ylmethyl)benzenesulfonamide] belongs less than 1 µM; to `COc1ccc(S(=O)(=O)NC(C)C)cc1Nc1ncc(-c2ccc(F)cc2)o1` [Example 123, 3-{[5-(4-fluorophenyl)-1,3-oxazol-2-yl]amino}-N-isopropyl-4-methoxybenzenesulfonamide], less than 1 µM; to `COc1ccc(S(=O)(=O)NCC2CCCO2)cc1Nc1ncc(-c2ccc(F)cc2)o1` (stereo not drawn) [Example 124, 3-{[5-(4-fluorophenyl)-1,3-oxazol-2-yl]amino}-4-methoxy-N-(tetrahydrofuran-2-ylmethyl)benzenesulfonamide], less than 1 µM. In the case of `COCCCNS(=O)(=O)c1ccc(OC)c(Nc2ncc(-c3ccc(F)cc3)o2)c1` [Example 129, 3-{[5-(4-fluorophenyl)-1,3-oxazol-2-yl]amino}-4-methoxy-N-(3-methoxypropyl)benzenesulfonamide], the IC50 is less than 1 µM.

For the molecule `CNS(=O)(=O)c1ccc(OC)c(Nc2ncc(-c3ccc(F)cc3)o2)c1` [Example 130, 3-{[5-(4-fluorophenyl)-1,3-oxazol-2-yl]amino}-4-methoxy-N-methylbenzenesulfonamide], the IC50 was less than 1 µM. To `CCS(=O)(=O)c1ccc(OC)c(Nc2ncc(-c3ccc(Cl)cc3)o2)c1` [Example 132, 5-(4-chlorophenyl)-N-[5-(ethylsulfonyl)-2-methoxyphenyl]-1,3-oxazol-2-amine] belongs less than 1 µM; to `CCS(=O)(=O)c1ccc(OC)c(Nc2ncc(-c3ccc(C#N)cc3)o2)c1` [Example 133, 4-(2-{[5-(ethylsulfonyl)-2-methoxyphenyl]amino}-1,3-oxazol-5-yl)benzonitrile], less than 0.5 µM. `CCS(=O)(=O)c1ccc(OC)c(Nc2ncc(-c3ccc(C(N)=O)cc3)o2)c1` [Example 134]: the IC50 is less than 0.5 µM. Consider `CCS(=O)(=O)c1ccc(OC)c(Nc2ncc(-c3cccc(Cl)c3)o2)c1` [Example 137, 5-(3-chlorophenyl)-N-[5-(ethylsulfonyl)-2-methoxyphenyl]-1,3-oxazol-2-amine], for which the IC50 was less than 1 µM. Then `CCS(=O)(=O)c1ccc(OC)c(Nc2ncc(-c3cccc(F)c3)o2)c1` [Example 141, N-[5-(ethylsulfonyl)-2-methoxyphenyl]-5-(3-fluorophenyl)-1,3-oxazol-2-amine], with less than 0.5 µM; and `CCS(=O)(=O)c1ccc(OC)c(Nc2ncc(-c3ccc4c(c3)OCCO4)o2)c1` [Example 148, 5-(Z,3-dihydro-1,4-benzodioxin-6-yl)-N-[5-(ethylsulfonyl)-2-methoxyphenyl]-1,3-oxazol-2-amine], with less than 1 µM; and `CCS(=O)(=O)c1ccc(OC)c(Nc2ncc(-c3ccc4c(c3)OCCCO4)o2)c1` [Example 153, 5-(3,4-dihydro-2H-1,5-benzodioxepin-7-yl)-N-[5-(ethylsulfonyl)-2-methoxyphenyl]-1,3-oxazol-2-amine], with less than 1 µM. In the case of `CCS(=O)(=O)c1ccc(OC)c(Nc2ncc(-c3cccc(O)c3)o2)c1` [Example 158], the IC50 is less than 1 µM. Then `CCS(=O)(=O)c1ccc(OC)c(Nc2ncc(-c3cccc(OCc4cccc(OC)c4OC)c3)o2)c1` [Example 165, 5-{3-[(2,3-dimethoxybenzyl)oxy]phenyl}-N-[5-(ethylsulfonyl)-2-methoxyphenyl]-1,3-oxazol-2-amine], with less than 1 µM; and `CCS(=O)(=O)c1ccc(OC)c(Nc2ncc(-c3cccc(OC(C)c4ccncc4)c3)o2)c1` (stereo not drawn) [Example 166, N-[5-(ethylsulfonyl)-2-methoxyphenyl]-5-[3-(1-pyridin-4-ylethoxy)phenyl]-1,3-oxazol-2-amine], with less than 1 µM. Regarding `CCS(=O)(=O)c1ccc(OC)c(Nc2ncc(-c3cccc(OC4CCOC4)c3)o2)c1` (stereo not drawn) [Example 167, N-[5-(ethylsulfonyl)-2-methoxyphenyl]-5-[3-(tetrahydrofuran-3-yloxy)phenyl]-1,3-oxazol-2-amine], the IC50 was less than 1 µM.

`CCS(=O)(=O)c1ccc(OC)c(Nc2ncc(-c3cccc(-c4cccs4)c3)o2)c1` [Example 172, N-[5-(ethylsulfonyl)-2-methoxyphenyl]-5-(3-thien-2-ylphenyl)-1,3-oxazol-2-amine]: the IC50 was less than 0.5 µM. Turning to `CCS(=O)(=O)c1ccc(OC)c(Nc2ncc(-c3cccc(-c4ccsc4)c3)o2)c1` [Example 173, N-[5-(ethylsulfonyl)-2-methoxyphenyl]-5-(3-thien-3-ylphenyl)-1,3-oxazol-2-amine], the IC50 is less than 0.5 µM.

In the case of `CCS(=O)(=O)c1ccc(OC)c(Nc2ncc(-c3cccc(-c4cccnc4)c3)o2)c1` [Example 174, N-[5-(ethylsulfonyl)-2-methoxyphenyl]-5-(3-pyridin-3-ylphenyl)-1,3-oxazol-2-amine], the IC50 was less than 1 µM. Then `C=Cc1cccc(-c2cnc(Nc3cc(S(=O)(=O)CC)ccc3OC)o2)c1` [Example 175, N-[5-(ethylsulfonyl)-2-methoxyphenyl]-5-(3-vinylphenyl)-1,3-oxazol-2-amine], with less than 1 µM.
